Measured values: PubChem BioAssay (NCI)
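Exposure lasted 48 hours, with cells grown in 96-well plates and compounds tested at five concentrations. GI50 marks 50% less growth. TGI: concentration producing complete growth inhibition.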

Legend:
Experiment in all cases: NCI anticancer screen, dose series, 48 h
[1] = system: SK-OV-3 ovarian
[2] = system: UACC-62 melanoma
[3] = system: UACC-257 melanoma
[4] = system: SK-MEL-28 melanoma
[5] = system: SR leukemia
[6] = system: OVCAR-8 ovarian
[7] = system: MCF7 breast
[8] = system: MDA-MB-435
[9] = system: T-47D breast
[10] = system: SF-539 CNS

Compound: CCN1CN(c2ccccc2)C2(CCN(CC(CC3OCCO3)c3ccc(F)cc3)CC2)C1=O (stereo not given)
- TGI [1]: > 73.3 µM
- TGI [2]: 47.1 µM
- TGI [3]: 13.8 µM
- TGI [4]: 40.5 µM
- TGI [5]: > 100 µM
- TGI [6]: > 100 µM
- TGI [7]: 7.22 µM
- TGI [8]: 38.2 µM
- TGI [9]: 38.9 µM
- TGI [10]: 25.5 µM

Compound: C=C1C[C@H](O)[C@H](Br)C(C)(C)C12CCC(C)(Cl)C(Br)C2 (stereo not given in full)
- TGI [1]: 12.7 µM
- TGI [2]: 15.6 µM
- TGI [3]: 3.06 µM
- TGI [4]: 19 µM
- TGI [5]: 19.7 µM
- TGI [6]: 15.1 µM
- TGI [7]: 11.2 µM
- TGI [8]: 11.7 µM
- TGI [9]: 13.5 µM
- TGI [10]: 42.2 µM

Compound: O=c1oc2c(Cl)cc(Cl)cc2cc1C1=CSC2=NCCN12
- TGI [1]: > 100 µM
- TGI [2]: > 100 µM
- TGI [3]: > 100 µM
- TGI [4]: > 100 µM
- TGI [5]: > 100 µM
- TGI [6]: > 100 µM
- TGI [7]: 88.9 µM
- TGI [8]: > 100 µM
- TGI [9]: > 100 µM
- TGI [10]: > 100 µM

Compound: Cc1cnc2sn(-c3ccc(Br)cc3)c(=O)c2c1
- TGI [1]: > 100 µM
- TGI [2]: > 100 µM
- TGI [3]: > 100 µM
- TGI [4]: > 100 µM
- TGI [5]: > 100 µM
- TGI [6]: > 100 µM
- TGI [7]: > 100 µM
- TGI [8]: > 100 µM
- TGI [9]: 48.4 µM
- TGI [10]: > 100 µM

Compound: ON=C(CC(O)(C(F)(F)Cl)C(F)(F)Cl)CC(O)(C(F)(F)Cl)C(F)(F)Cl
- TGI [1]: > 10 µM
- TGI [2]: > 10 µM
- TGI [3]: > 10 µM
- TGI [4]: > 10 µM
- TGI [5]: > 10 µM
- TGI [6]: > 10 µM
- TGI [7]: > 10 µM
- TGI [8]: > 10 µM
- TGI [9]: > 10 µM
- TGI [10]: > 10 µM

Compound: O=C1CC(=O)NC(=NNS(=O)(=O)c2ccc(Cl)cc2)N1
- TGI [1]: > 100 µM
- TGI [2]: > 100 µM
- TGI [3]: > 100 µM
- TGI [4]: > 100 µM
- TGI [5]: > 100 µM
- TGI [6]: > 100 µM
- TGI [7]: > 100 µM
- TGI [8]: > 100 µM
- TGI [9]: > 100 µM
- TGI [10]: > 100 µM

Compound: O=C(CC(Cl)=C(Cl)Cl)c1ccccc1
- TGI [1]: > 100 µM
- TGI [2]: > 100 µM
- TGI [3]: 70 µM
- TGI [4]: > 100 µM
- TGI [5]: 43.7 µM
- TGI [6]: > 100 µM
- TGI [7]: > 100 µM
- TGI [8]: > 100 µM
- TGI [9]: > 100 µM
- TGI [10]: > 100 µM

Compound: CCCCCCCCCCCCCCCCCCOCC(O)COP(=O)(O)OCC1OC(n2ccc(N)nc2=O)C(O)C1O (stereo not given)
- TGI [1]: > 100 µM
- TGI [2]: 70.2 µM
- TGI [3]: > 100 µM
- TGI [4]: > 100 µM
- TGI [5]: 40.4 µM
- TGI [6]: 24.3 µM
- TGI [7]: > 100 µM
- TGI [8]: > 100 µM
- TGI [9]: > 100 µM
- TGI [10]: 34.4 µM

Compound: CCO/C=N/C1=C(C#N)SC2=N/C(=C\c3ccccc3)C(=O)N21
- TGI [1]: > 100 µM
- TGI [2]: > 100 µM
- TGI [3]: > 100 µM
- TGI [4]: > 100 µM
- TGI [5]: > 93.8 µM
- TGI [6]: > 100 µM
- TGI [7]: > 100 µM
- TGI [8]: > 100 µM
- TGI [9]: > 100 µM
- TGI [10]: > 100 µM

Compound: CCOC(=O)c1nnc2c(C#N)c(-c3ccccc3)c(C)n2c1N
- TGI [1]: > 100 µM
- TGI [2]: 66.6 µM
- TGI [3]: 92.7 µM
- TGI [4]: 73.2 µM
- TGI [5]: > 100 µM
- TGI [6]: 98.3 µM
- TGI [7]: > 100 µM
- TGI [8]: > 100 µM
- TGI [9]: > 100 µM
- TGI [10]: > 100 µM

Compound: CC(=O)N(C(C)=O)c1cc2c3c(c1)CCCN3CCC2
- TGI [1]: > 10 µM
- TGI [2]: > 10 µM
- TGI [3]: > 10 µM
- TGI [4]: > 10 µM
- TGI [5]: > 10 µM
- TGI [6]: > 10 µM
- TGI [7]: > 10 µM
- TGI [8]: > 10 µM
- TGI [9]: > 10 µM
- TGI [10]: > 10 µM

Compound: BrCC[N+]12CC[N+](CCBr)(CC1)C2
- TGI [1]: > 100 µM
- TGI [2]: > 100 µM
- TGI [3]: > 100 µM
- TGI [4]: > 100 µM
- TGI [5]: > 100 µM
- TGI [6]: > 100 µM
- TGI [7]: > 100 µM
- TGI [8]: > 100 µM
- TGI [9]: > 100 µM
- TGI [10]: > 100 µM

Compound: CN(C)c1ccc(C=C2C(=O)NC(=S)NC2=O)c2ccccc12
- TGI [1]: > 100 µM
- TGI [2]: > 100 µM
- TGI [3]: > 100 µM
- TGI [4]: > 100 µM
- TGI [5]: > 100 µM
- TGI [6]: 77 µM
- TGI [7]: > 100 µM
- TGI [8]: > 100 µM
- TGI [9]: > 100 µM
- TGI [10]: > 100 µM

Compound: Cc1nc2sccn2c1/C=C1/C(=O)Nc2cccc(Cl)c21
- TGI [1]: > 100 µM
- TGI [2]: > 100 µM
- TGI [3]: > 100 µM
- TGI [4]: > 100 µM
- TGI [5]: > 100 µM
- TGI [6]: > 100 µM
- TGI [7]: > 100 µM
- TGI [8]: 39.3 µM
- TGI [9]: > 100 µM
- TGI [10]: > 100 µM

Compound: O=C1CC(NCc2ccccc2)c2c(Cl)sc(Cl)c21 (stereo not given)
- TGI [1]: > 100 µM
- TGI [2]: 24.3 µM
- TGI [3]: > 63 µM
- TGI [4]: 76.7 µM
- TGI [5]: > 100 µM
- TGI [6]: 48.5 µM
- TGI [7]: 50.3 µM
- TGI [8]: 85.2 µM
- TGI [9]: > 100 µM
- TGI [10]: 57.5 µM

Compound: NS(=O)(=O)c1ccc(/C=C/c2ccc(O)cc2)cc1
- TGI [1]: 59.5 µM
- GI50 [2]: 3.4 µM
- TGI [2]: 20.4 µM
- TGI [3]: > 100 µM
- TGI [4]: 78.2 µM
- GI50 [5]: 4.68 µM
- TGI [5]: 55.5 µM
- GI50 [6]: 4.81 µM
- TGI [6]: 31.9 µM
- TGI [7]: > 100 µM
- GI50 [8]: 20.3 µM
- TGI [8]: > 100 µM
- TGI [9]: 71.6 µM
- GI50 [10]: 7.4 µM
- TGI [10]: 37.7 µM

Compound: O=C(c1ccccc1)N1C(=S)N(c2ccccn2)C(=Nc2ccccc2)C1=Nc1ccccc1
- TGI [1]: > 86.6 µM
- TGI [2]: > 41.3 µM
- TGI [3]: > 74.6 µM
- TGI [4]: > 100 µM
- TGI [5]: > 63 µM
- TGI [6]: > 100 µM
- TGI [7]: > 100 µM
- TGI [8]: > 58 µM
- TGI [9]: > 62.1 µM
- TGI [10]: 44.9 µM

Compound: CCOP(=O)(OCC)OC1c2[nH]cc(C(=O)OCc3ccccc3)c2-c2cc(C(=O)OC)[nH]c2C1OC (stereo not given)
- TGI [1]: 58 µM
- TGI [2]: > 79.6 µM
- TGI [3]: > 35 µM
- TGI [4]: > 100 µM
- TGI [5]: > 100 µM
- TGI [6]: > 62.8 µM
- TGI [7]: > 100 µM
- TGI [8]: > 100 µM
- TGI [9]: 24 µM
- TGI [10]: > 43.7 µM

Compound: CCOC(=O)NN(C(=O)OCC)c1c(C)cc(C)cc1C
- TGI [1]: > 100 µM
- TGI [2]: > 100 µM
- TGI [3]: > 100 µM
- TGI [4]: > 100 µM
- TGI [5]: > 100 µM
- TGI [6]: > 100 µM
- TGI [7]: > 100 µM
- TGI [8]: > 100 µM
- TGI [9]: > 100 µM
- TGI [10]: > 100 µM

Compound: COC(=O)/C=C1/OC(c2ccc(OC)cc2)=C(Cl)C1=O
- TGI [1]: 25.2 µM
- TGI [2]: 37.9 µM
- TGI [3]: 49.6 µM
- TGI [4]: 32.6 µM
- TGI [5]: 9.53 µM
- TGI [6]: 28.2 µM
- TGI [7]: 25 µM
- TGI [8]: 30.4 µM
- TGI [9]: 36.6 µM
- TGI [10]: 41 µM

Compound: ClCCCCCc1c2nc(c(CCCCCCl)c3ccc([nH]3)c(CCCCCCl)c3ccc([nH]3)c(CCCCCCl)c3nc1C=C3)C=C2
- TGI [1]: > 100 µM
- TGI [2]: > 100 µM
- TGI [3]: > 100 µM
- TGI [4]: > 100 µM
- TGI [5]: > 100 µM
- TGI [6]: > 100 µM
- TGI [7]: > 100 µM
- TGI [8]: > 100 µM
- TGI [9]: > 100 µM
- TGI [10]: > 100 µM

Compound: O=C(c1cc2c(c3ccccc13)NC1(CCCCC1)N=C2C(F)(F)F)C(F)(F)F
- TGI [1]: 18.7 µM
- TGI [2]: 13.6 µM
- TGI [3]: 11.3 µM
- TGI [4]: 22.6 µM
- TGI [5]: 13.2 µM
- TGI [6]: 15.8 µM
- TGI [7]: 12.2 µM
- TGI [8]: 12.5 µM
- TGI [9]: 13.5 µM
- TGI [10]: 5.59 µM

Compound: CC(=O)OC(Cc1c(O)c2c(C)cccc2oc1=O)C(C)(C)O (stereo not given)
- TGI [1]: > 100 µM
- TGI [2]: > 100 µM
- TGI [3]: > 100 µM
- TGI [4]: > 100 µM
- TGI [5]: > 100 µM
- TGI [6]: > 100 µM
- TGI [7]: > 100 µM
- TGI [8]: > 100 µM
- TGI [9]: > 100 µM
- TGI [10]: > 100 µM

Compound: CC(=O)OC(C)(C)CCC(=O)[C@](C)(O)[C@H]1[C@H](O)C[C@@]2(C)[C@@H]3CCc4c(cc(OC5OC(CO)C(O)C(O)C5O)c(O)c4C)C3(C)C(=O)C[C@]12C (stereo not given in full)
- TGI [1]: > 100 µM
- TGI [2]: > 100 µM
- TGI [3]: > 100 µM
- TGI [4]: > 100 µM
- TGI [5]: > 100 µM
- TGI [6]: > 100 µM
- TGI [7]: > 100 µM
- TGI [8]: > 100 µM
- TGI [9]: > 100 µM
- TGI [10]: > 100 µM

Compound: O=C(N/N=C/c1ccccc1)c1cccc2nc3ccccc3nc12
- TGI [1]: > 100 µM
- TGI [2]: > 100 µM
- TGI [3]: > 100 µM
- TGI [4]: > 100 µM
- TGI [5]: > 100 µM
- TGI [6]: > 100 µM
- TGI [7]: > 100 µM
- TGI [8]: > 100 µM
- TGI [9]: > 100 µM
- TGI [10]: > 100 µM

Compound: C#CC1(O)CCCCCCCCC2(CCCCCCCC1)OCCO2
- TGI [1]: 33.2 µM
- TGI [2]: 28.6 µM
- TGI [3]: 39.2 µM
- TGI [4]: 35.1 µM
- TGI [5]: 34.3 µM
- TGI [6]: 34.4 µM
- TGI [7]: 36.3 µM
- TGI [8]: 33.5 µM
- TGI [9]: 33.8 µM
- TGI [10]: 31.8 µM
